Experimental data from ChEMBL document CHEMBL1139147, “Evaluation of fluorescently labeled xylopyranosides as probes for proteoglycan biosynthesis” (Bioorg Med Chem Lett, 2007).
Activity calls are given as the source filed them. The rule behind the calls is not given here.

What was measured:
[1] = Partition coefficient, log P assessed as retention time; type: physicochemical; conditions: octanol/water
T-24 [2] = assay: Suppression of proteoglycan production in T24 cells at 0.1 mM; type: functional, cell-based; conditions: Homo sapiens
T-24 [3] = assay: Suppression of glycosaminoglycan production in T24 cells at 0.1 mM; type: functional, cell-based; conditions: Homo sapiens

Row | Activity [1] | Structure (SMILES) | Activity (T-24 [2]) | Activity (T-24 [3])
1 | 43.4 min | Oc1cc2ccc(O[C@@H]3OC[C@@H](O)[C@H](O)[C@H]3O)cc2cc1COCc1c2ccccc2cc2ccccc12 |  | 
2 | 38.48 min | CN(C)c1cccc2c(S(=O)(=O)Oc3ccc4cc(O[C@@H]5OC[C@@H](O)[C@H](O)[C@H]5O)ccc4c3)cccc12 | Active | Active
3 | 17.73 min | Oc1ccc2cc(O[C@@H]3OC[C@@H](O)[C@H](O)[C@H]3O)ccc2c1 |  | 
